Among the data in US5622947A, “Benzoheterocyclic compounds and vasopressin antagonist and oxytocin antagonist compositions containing a benzoheterocyclic compound” (Otsuka Pharmaceutical Co., Ltd., priority 1992, dated 1997) are IC50 values, retold here.

Molecules are shown by their SMILES. pIC50: −log10 of the molar value. Counter-ions that a name gives are not always drawn.

The target of assay [1] is T1, V2 Recepter (rat kidney plasma membrane preparations) (Rattus norvegicus, UniProt Q00788).
T1 construct: rat kidney plasma membrane preparations; from tissue; host or cells: rat kidney plasma membranes
Kind of assay: V2 Recepter binding assay. The conditions noted are these: [3H]-Arg-vasopressin 4×10^-10 M, 4° C., pH 8.0, rat kidney plasma membrane. The method, then:
Test 2: V2 Recepter binding assay
By using rat kidney plasma membrane preparations prepared according to Hechter's method [by O. Hechter: J. Bio. Chem., 2.53, 3211 (1978)], the plasma membrane (100,000 dpm, 4×10^-10 M) of [^3 H]-Arg-vasopressin and a test compound (0.6 mg, 10^-10 to 10^-5 M) were incubated at 4° C. for 3 hours in 250 μl (in total volume) of 100 mM Tris-HCl buffer (pH=8.0), containing, 5 mM MgCl2, 1 mM EDTA and 0.1% BSA. After the incubation, the mixture, the mixture was filtered by using a glass filter (GF/F) so as to separate the membrane preparation combining with vasopressin, then washed twice with the buffer (5 ml). This glass filter was taken out and mixed with liquid scintillation cocktail. The amount of [^3 H]-vasopressin combining with the membrane was measured by a liquid scintillation counter and the rate of inhibitory effect of the test compound was calculated according to the following equation: Rate of the inhibitory
C1 : the amount of [^3 H]-vasopressin combining with the membrane in the presence of the testcompound of a known amount,
C0 : the amount of [^3 H]-vasopressin combining with the membrane in the absence of the test compound,
B1 : the amount of [^3 H]-vasopressin combining with the mebrane in the presence of the excess amount of vasopressin (10^-6 M).
The results are expressed as IC50 value, which is the concentration of the test compound required to achieve the inhibitory effect in the rate of 50%, and are shown in the following Table 157.

Assay [2] concerns the target T2, Oxytocin receptor (uterin muscle membrane preparation) (Rattus norvegicus, UniProt P70536).
T2 construct: was homogenized, which was used as a membrane; from tissue; host or cells: uterine muscle membranes from diethylstilbestrol-treated animals
T2 sequence (P70536 1-388): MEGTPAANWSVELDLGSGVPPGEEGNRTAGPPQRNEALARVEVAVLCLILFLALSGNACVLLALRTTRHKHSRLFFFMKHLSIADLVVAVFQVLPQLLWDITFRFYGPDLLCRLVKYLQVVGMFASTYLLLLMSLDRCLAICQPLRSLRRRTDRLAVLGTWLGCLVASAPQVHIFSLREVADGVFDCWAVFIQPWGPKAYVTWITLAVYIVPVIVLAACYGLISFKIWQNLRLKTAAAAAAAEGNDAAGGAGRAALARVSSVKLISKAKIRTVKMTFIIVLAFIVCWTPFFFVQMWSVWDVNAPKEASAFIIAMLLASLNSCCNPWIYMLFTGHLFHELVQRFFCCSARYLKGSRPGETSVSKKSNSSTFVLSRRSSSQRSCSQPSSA
The experiment in a line: Oxytocin receptor binding assay. The note with it: [3H]-oxytocin 10^-9 M, 25°, one hour, pH 8.0, uterin muscle membrane, DES-treated. The procedure:
Test-5 Oxytocin receptor binding assay
In accordance with Chan's method [by W. Y. Chan, et al.: Endocrinology, 126, 2095-2101 (1990)], the uterin muscle benn injected subcutaneously with diethylstilbe-sterol (DES) the day before and was homogenized, which was used as a membrane prepara tion. The membrane preparation (0.2 mg), [^3 H]-oxytocin (100,000 dpm, 10^-9 M), a test compound (10^-9 to 10^-5 M) were incubated at 25°. for one hour in 100 mM Tris-HCl buffer (pH=8.0, 250 μl) containing 5 mM MgCl2, 1 mM EDTA and 0.1% BSA. The mixture was filtered through a glass filter (GF/F) so as to separate the membrane preparation combining with [^3 H]-oxytocin, then, was washed twicw with the buffer (5 ml). The glass filter was put into a vial and mixed with Aquasole (a liquid scintillation cocktail). The amount of [^3 H]-oxytocin combining w ith the membrane was measured by a liquid scintillation counter. The rate of the inhibitory effect of the test compound was calculated according to the equation as follows: […]
C1 : the amount of [^3 H]-oxytocin combining with the membrane in the presence of a test compound (in known amount),
C0 : the amount of [^3 H]-oxytocin combinig with the membrane in the absence of a test compound,
B: the amount of [^3 H]-oxytocin combining with the membrane in the presence of the excess amount of oxytocin (5×10^-6 M).
The results are expressed as IC50 values, which is the concentration of the test compound required to achieve the inhibitory effect in the rate of 50%.

T1 sequence (Q00788 whole entry): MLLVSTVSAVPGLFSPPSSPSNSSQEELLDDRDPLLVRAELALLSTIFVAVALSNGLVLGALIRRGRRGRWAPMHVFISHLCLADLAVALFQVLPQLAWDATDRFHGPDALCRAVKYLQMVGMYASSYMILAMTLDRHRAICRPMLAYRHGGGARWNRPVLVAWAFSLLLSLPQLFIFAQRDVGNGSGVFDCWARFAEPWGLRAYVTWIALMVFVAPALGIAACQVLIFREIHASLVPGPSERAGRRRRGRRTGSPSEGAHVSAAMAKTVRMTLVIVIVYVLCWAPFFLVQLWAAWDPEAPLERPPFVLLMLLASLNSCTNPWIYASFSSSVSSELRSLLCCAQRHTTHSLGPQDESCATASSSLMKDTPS

By pIC50 is commonly meant the negative decadic logarithm of the IC50, by convention in mol/L. Low readings indicate a large IC50, high ones a small IC50. Consider `CC(=O)NC1CCN(CCOC2CCCN(C(=O)c3ccc(NC(=O)c4ccccc4Cl)cc3C)c3ccc(Cl)cc32)CC1` (stereo not drawn) [Example 75, 5-[2-(4-Acetylamino-1-piperidinyl)ethoxy]-7-chloro-1-[2-methyl-4-(2-chlorobenzoylamino)benzoyl]-2,3,4,5-tetrahydro-1H-benzoazepine], for which the negative logarithm of the IC50 (pIC50) in assay [1] was 7.49.

For the molecule `CC(=O)NC1CCN(CCC2CCCN(C(=O)c3ccc(NC(=O)c4ccccc4Cl)cc3C)c3ccc(Cl)cc32)CC1` (stereo not drawn) [Example 76, 5-[2-(4-Acetylamino-1-piperidinyl)ethyl]-7-chloro-1-[2-methyl-4-(2-chlorobenzoylamino)benzoyl]-2,3,4,5-tetrahydro-1H-benzoazepine], in assay [1], the pIC50 was 7.85. The same measure, in the same setting: in the case of `COc1cc(NC(=O)c2ccccc2C)ccc1C(=O)N1CCC=C(CC(=O)N2CCN(C)CC2)c2cc(F)ccc21` [Example 86, 5-(4-Methyl-1-piperazinyl)carbonylmethyl-7-fluoro-1-[2-methoxy-4-(2-methylbenzoylamino)benzoyl]-2,3,-dihydro-1H-benzoazepine] it was 7.23; in that of `Cc1cc(NC(=O)c2ccccc2Cl)ccc1C(=O)N1CCCC(OCCn2cncn2)c2cc(Cl)ccc21` (stereo not drawn) [Example 92], 8.13; in that of `Cc1cc(NC(=O)c2ccccc2Cl)ccc1C(=O)N1CCCC(OCCn2cnnn2)c2cc(Cl)ccc21` (stereo not drawn) [Example 93, 5-[2-(1,2,3,4-Tetrazol-1-yl)ethoxy]-7-chloro-1-[2-methyl-4-(2-chlorobenzoylamino)benzoyl]-2,3,4,5-tetrahydro-1H-benzoazepine], 7.85. In turn, `Cc1cc(NC(=O)c2ccccc2Cl)ccc1C(=O)N1CCCC(CCN2CCOCC2)c2cc(Cl)ccc21` (stereo not drawn) [Example 95] gave a negative-log IC50 (pIC50) in assay [1] of 7.77. For `Cc1cc(NC(=O)c2ccccc2Cl)ccc1C(=O)N1CCCC(CCN2CCCCC2)c2cc(Cl)ccc21` (stereo not drawn) [Example 96, 5-[2-(1-Piperidinyl)ethyl]-7-chloro-1-[2-methyl-4-(2-chlorobenzoylamino)benzoyl]-2,3,4,5-tetrahydro-1H-benzoazepine.cndot.hydrochloride], the pIC50 in assay [2] is 5.36; in assay [1], 8.05.

Turning to `Cc1cc(NC(=O)c2ccccc2Cl)ccc1C(=O)N1CCCC(CCN2CCCC2)c2cc(Cl)ccc21` (stereo not drawn) [Example 97, 5-[2-(1-Pyrrolidinyl)ethyl]-7-chloro-1-[2-methyl-4-(2-chlorobenzoylamino)benzoyl]-2,3,4,5-tetrahydro-1H-benzoazepine.cndot.hydrochloride], the negative logarithm of the IC50 (pIC50) in assay [2] was 5.39; in assay [1] it was 8.14. In assay [1], `Cc1cc(NC(=O)c2ccccc2Cl)ccc1C(=O)N1CCCC(CCn2cnnn2)c2cc(Cl)ccc21` (stereo not drawn) [Example 98] gave a pIC50 of 8.05. `Cc1cc(NC(=O)c2ccccc2Cl)ccc1C(=O)N1CCCC(CCn2ncnn2)c2cc(Cl)ccc21` (stereo not drawn) [Example 99]: the pIC50 was 5.55 in assay [2] and 7.92 in assay [1]. As to `C=CCN(C)CCC1CCCN(C(=O)c2ccc(NC(=O)c3ccccc3Cl)cc2C)c2ccc(Cl)cc21` (stereo not drawn) [Example 100], the pIC50 is 5.39 in assay [2] and 8.33 in assay [1]. Regarding `C=CCNCCC1CCCN(C(=O)c2ccc(NC(=O)c3ccccc3Cl)cc2C)c2ccc(F)cc21` (stereo not drawn) [Example 101, 5-(2-Allylaminoethyl)-7-fluoro-1-[2-methyl-4-(2-chlorobenzoylamino)benzoyl]-2,3,4,5-tetrahydro-1H-benzoazepine], the negative-log IC50 (pIC50) was 5.28 in assay [2] and 8.15 in assay [1]. Take `Cc1cc(NC(=O)c2ccccc2Cl)ccc1C(=O)N1CCCC(CCNC2CC2)c2cc(Cl)ccc21` (stereo not drawn) [Example 102, 5-(2-Cyclopropylaminoethyl)-7-chloro-1-[2-methyl-4-(2-chlorobenzoylamino)benzoyl]-2,3,4,5-tetrahydro-1H-benzoazepine.cndot.hydrochloride]: the negative logarithm of the IC50 (pIC50) in assay [2] was 5.54; in assay [1] it was 8.15. The matching figures for `C#CCNCCC1CCCN(C(=O)c2ccc(NC(=O)c3ccccc3Cl)cc2C)c2ccc(Cl)cc21` (stereo not drawn) [Example 103, 5-(2-Propargylaminoethyl)-7-chloro-1-[2-methyl-4-(2-chlorobenzoylamino)benzoyl]-2,3,4,5-tetrahydro-1H-benzoazepine.cndot.hydrochloride]: 5.52 and 8.10.

Consider `Cc1cc(NC(=O)c2ccccc2Cl)ccc1C(=O)N1CCCC(CCn2cncn2)c2cc(Cl)ccc21` (stereo not drawn) [Example 105, 5-[2-(1,2,4-Triazol-1-yl)ethyl]-7-chloro-1-[2-methyl-4-(2-chlorobenzoylamino)benzoyl]-2,3,4,5-tetrahydro-1H-benzoazepine], for which the pIC50 in assay [1] was 8.12. `C=CCN(C)CCC1CCCN(C(=O)c2ccc(NC(=O)c3ccccc3Cl)cc2C)c2ccc(F)cc21` (stereo not drawn) [Example 129, 5-[2-(N-Allyl-N-methylamino)ethyl]-7-fluoro-1-[2-methyl-4-(2-chlorobenzoylamino)benzoyl]-2,3,4,5-tetrahydro-1H-benzoazepine] showed a pIC50 in assay [1] of 7.92. `COc1cc(NC(=O)c2ccccc2Cl)ccc1C(=O)N1CCC=C(CCN2CCN(C(C)=O)CC2)c2cc(Cl)ccc21` [Example 179, 5-[2-(4-Acetyl-1-piperazinyl)ethyl]-7-chloro-1-[2-methoxy-4-(2-chlorobenzoylamino)benzoyl]-2,3,-dihydro-1H-benzoazepine] gave a pIC50 in assay [2] of 5.58. For the molecule `COc1cc(NC(=O)c2ccccc2Cl)ccc1C(=O)N1CCCC(OCCN2CCCN(C)CC2)c2cc(Cl)ccc21` (stereo not drawn) [Example 180, 5-[2-(4-Methyl-1-homopiperazinyl)ethoxy]-7-chloro-1-[2-methoxy-4-(2-chlorobenzoylamino)benzoyl]-2,3,4,5-tetrahydro-1H-benzoazepine], the negative-log IC50 (pIC50) in assay [2] was 6.55. `COc1cc(NC(=O)c2ccccc2Cl)ccc1C(=O)N1CCCC(CC(=O)N2CCN(c3ccccc3Cl)CC2)c2cc(Cl)ccc21` (stereo not drawn) [Example 181] gave a negative logarithm of the IC50 (pIC50) in assay [2] of 6.22. Against the preceding molecule, the pIC50 is 0.33 log units lower. The molecule `CN(C)C(=O)CC1CCCN(C(=O)c2ccc(NC(=O)c3ccccc3OCCCCNC(C)(C)C)cc2)c2ccc(Cl)cc21` (stereo not drawn) [Example 182] showed a pIC50 in assay [2] of 5.33. Consider `COc1cc(NC(=O)c2cccc3c2OCCC3)ccc1C(=O)N1CCCC(CC(=O)N2CCN(C)CC2)c2cc(Cl)ccc21` (stereo not drawn) [Example 183], for which, in assay [2], the pIC50 was 5.36. Consider `CC(=O)NC1CCN(CCCCOc2ccc(Cl)c(C(=O)Nc3ccc(C(=O)N4CCCCc5cc(Cl)ccc54)cc3)c2)CC1` [Example 184], for which, in assay [2], the negative logarithm of the IC50 (pIC50) was 5.44. Same read-out and setting: in the case of `COc1cc(C(=O)N2CCCC(CC(=O)N3CCCN(C)CC3)c3cc(Cl)ccc32)ccc1NC(=O)c1ccccc1Br` (stereo not drawn) [Example 185] it was 6.79.
